Results: patent US20140221499A1, “NOVEL RODENT CONTROL AGENTS AND USES THEREOF” (priority 2011, published 2014)

What was measured:
[1] = test system: corticosterone levels in rat plasma; assay: Plasma corticosterone assay after odor exposure; type: in vivo; conditions: 30 min exposure, 10% amine or 2% TMT, 1 ml, ±SEM
Procedure: Avoidance to 2-phenylethylamine in rats was associated with acute changes in circulating levels of the stress hormone corticosterone.
Plasma corticosterone assay. […] Corticosterone levels were measured in duplicate using a competitive radioactive binding assay as described previously (Pryce C R, Bettschen D, Bahr N I, & Feldon J (2001) Comparison of the effects of infant handling, isolation, and nonhandling on acoustic startle, prepulse inhibition, locomotion, and HPA activity in the adult rat. Behav Neurosci 115(1):71-83).

rTAAR7b = molecular target: T1, rTAAR7b (Rattus norvegicus, UniProt Q923X8); assay: CRE-SEAP reporter gene assay in HEK293 cells transfected with rTAAR7b; type: cell-based; set-up: Full Taar coding regions were cloned into pcDNA3.1; expressed in transfected cells; host or cells: HEK293; conditions: FIG. 11A, rTAAR7b did not work with a 'Rho tag' (unmodified form), EC50 ± s.e.m., 4-parameter Hill equation
T1 sequence (Q923X8 1-358): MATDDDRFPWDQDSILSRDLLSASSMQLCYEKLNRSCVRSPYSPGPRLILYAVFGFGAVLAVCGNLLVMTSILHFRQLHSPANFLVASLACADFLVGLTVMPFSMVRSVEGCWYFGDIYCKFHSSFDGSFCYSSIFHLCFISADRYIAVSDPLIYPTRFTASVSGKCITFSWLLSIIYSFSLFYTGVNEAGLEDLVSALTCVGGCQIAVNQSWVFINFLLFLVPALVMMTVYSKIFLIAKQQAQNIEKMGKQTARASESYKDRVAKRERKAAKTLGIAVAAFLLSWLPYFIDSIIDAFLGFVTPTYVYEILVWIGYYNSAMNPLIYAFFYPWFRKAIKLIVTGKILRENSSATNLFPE
Procedure: (§1) FIG. 11 illustrates the dose-dependent responses of TAARs to amines. HEK293 cells were cotransfected with plasmids encoding CRE-SEAP and rTAARs (a) or mTAARs (b), incubated with concentrations of ligands indicated, and assayed for reporter activity (triplicates±s.d.). EC50 values (±s.e.m, bottom right) were calculated using SigmaPlot (Systat Software) and a 4-parameter Hill equation.
(§2) The following mixes (10 μM of each indicated compounds) were tested for their ability to activate rat TAARs. Mix 1: butylamine, dibutylamine, hexylamine. Mix 2: 2-aminopentane, isoamylamine, isobutylamine, isopropylamine. Mix 3: N,N-dimethylcyclohexylamine, 1-methylindole, tryptamine, phenylethylamine. Mix 4: indole, 1-methylpyrrolidine, 1-methylpiperidine, pyrrolidine. […]
(§3) Full Taar coding regions were cloned into pcDNA3.1-(Invitrogen) with or without a 5′ DNA extension of 69 bp encoding the first 20 amino acids of bovine rhodopsin followed by a cloning linker ([…]). […] Fluorescence was measured on an EnVision plate reader (Perkin Elmer) and SEAP activity graphed as relative fluorescence of a phosphatase substrate.
(§4) Here, we set out to identify agonists for additional mouse and rat TAARs. […] Transfected cells were incubated with test chemicals, and phosphatase activity was quantified with a fluorescent substrate as a reporter for TAAR activation. […]

rTAAR9 = molecular target: T2, rTAAR9 (Rattus norvegicus, UniProt Q923Y6); assay: CRE-SEAP reporter gene assay in HEK293 cells transfected with rTAAR9; type: cell-based; conditions: FIG. 11A, functional with or without 'Rho tag', EC50 ± s.e.m., 4-parameter Hill equation
T2 construct: Full Taar coding regions were cloned into pcDNA3.1; expressed in transfected cells; host or cells: HEK293
T2 sequence (Q923Y6 1-338): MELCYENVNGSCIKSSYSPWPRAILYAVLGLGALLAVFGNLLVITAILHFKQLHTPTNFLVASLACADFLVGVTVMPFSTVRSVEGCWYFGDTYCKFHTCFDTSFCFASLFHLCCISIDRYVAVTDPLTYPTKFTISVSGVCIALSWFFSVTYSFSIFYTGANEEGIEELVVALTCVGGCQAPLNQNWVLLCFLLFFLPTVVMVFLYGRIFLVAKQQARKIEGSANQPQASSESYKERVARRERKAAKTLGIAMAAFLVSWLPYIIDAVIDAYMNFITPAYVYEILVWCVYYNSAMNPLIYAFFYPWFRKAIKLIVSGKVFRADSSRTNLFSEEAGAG
Procedure: as §1, §2, §3, §4

SMILES	plasma levels of corticosterone [1] [ng/mL]	EC50 (rTAAR7b) [µM]	EC50 (rTAAR9) [µM]
NCCc1ccccc1 [2-phenylethylamine]	194 ± 18		
CN(C)C1CCCCC1 [N,N-DIMETHYLCYCLOHEXYLAMINE, N,N-dimethylcyclohexylamine]		33.2 ± 12.8	26.6 ± 1.9
